Experiments:
Experiment in all cases: KINOMEscan kinase binding assay
[1] = biological target: T1, 384 kinases from the human genome (Homo sapiens, UniProt Q9HAZ1); details: kinase CLK4 (Entrez CLK4)
T1 construct: purchased Eurofin/DiscoverX
Procedure, shortened: (§1)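 Competition binding (KINOMEscan) across 384 human kinases with compound at 10 µM. Ligand binding was expressed relative to DMSO (100%) as the average of duplicates from one experiment. S(10) selectivity score was derived.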

[2] = biological target: T2, 384 kinases from the human genome (Homo sapiens, UniProt P12931)
T2 construct: purchased Eurofin/DiscoverX
Procedure, shortened: as §1

[3] = biological target: T3, 384 kinases from the human genome (Homo sapiens, UniProt Q52WX2); details: kinase SBK1 (Entrez SBK1)
T3 construct: purchased Eurofin/DiscoverX
Procedure, shortened: as §1

[4] = biological target: T4, 384 kinases from the human genome (Homo sapiens, UniProt P43403); details: kinase ZAP70 (Entrez ZAP70)
T4 construct: purchased Eurofin/DiscoverX
Procedure, shortened: as §1

[5] = biological target: T5, 384 kinases from the human genome (Homo sapiens, UniProt P50750); details: kinase CDK9 (Entrez CDK9)
T5 construct: purchased Eurofin/DiscoverX
Procedure, shortened: as §1

[6] = biological target: T6, 384 kinases from the human genome (Homo sapiens, UniProt P06213); details: kinase INSR (Entrez INSR)
T6 construct: purchased Eurofin/DiscoverX
Procedure, shortened: as §1

[7] = biological target: T7, 384 kinases from the human genome (Homo sapiens, UniProt Q13153); details: kinase PAK1 (Entrez PAK1)
T7 construct: purchased Eurofin/DiscoverX
Procedure, shortened: as §1

[8] = biological target: T8, 384 kinases from the human genome (Homo sapiens, UniProt Q96NX5); details: kinase CAMK1G (Entrez CAMK1G)
T8 construct: purchased Eurofin/DiscoverX
Procedure, shortened: as §1

[9] = biological target: T9, 384 kinases from the human genome (Homo sapiens, UniProt Q59H18); details: kinase TNNI3K (Entrez TNNI3K)
T9 construct: purchased Eurofin/DiscoverX
Procedure, shortened: as §1

[10] = biological target: T10, 384 kinases from the human genome (Homo sapiens, UniProt Q8NI60); details: kinase ADCK3 (Entrez CABC1)
T10 construct: purchased Eurofin/DiscoverX
Procedure, shortened: as §1

[11] = biological target: T11, 384 kinases from the human genome (Homo sapiens, UniProt P54760); details: kinase EPHB4 (Entrez EPHB4)
T11 construct: purchased Eurofin/DiscoverX
Procedure, shortened: as §1

[12] = biological target: T12, 384 kinases from the human genome (Homo sapiens, UniProt Q15139); details: kinase PRKD1 (Entrez PRKD1)
T12 construct: purchased Eurofin/DiscoverX
Procedure, shortened: as §1

[13] = biological target: T13, 384 kinases from the human genome (Homo sapiens, UniProt Q9HC98); details: kinase NEK6 (Entrez NEK6)
T13 construct: purchased Eurofin/DiscoverX
Procedure, shortened: as §1

[14] = biological target: T14, 384 kinases from the human genome (Homo sapiens, UniProt P11362); details: kinase FGFR1 (Entrez FGFR1)
T14 construct: purchased Eurofin/DiscoverX
Procedure, shortened: as §1

[15] = biological target: T15, 384 kinases from the human genome (Homo sapiens, UniProt P07948); details: kinase LYN (Entrez LYN)
T15 construct: purchased Eurofin/DiscoverX
Procedure, shortened: as §1

[16] = biological target: T16, 384 kinases from the human genome (Homo sapiens, UniProt Q9P0L2); details: kinase MARK1 (Entrez MARK1)
T16 construct: purchased Eurofin/DiscoverX
Procedure, shortened: as §1

[17] = biological target: T17, 384 kinases from the human genome (Homo sapiens, UniProt P29320); details: kinase EPHA3 (Entrez EPHA3)
T17 construct: purchased Eurofin/DiscoverX
Procedure, shortened: as §1

[18] = biological target: T18, 384 kinases from the human genome (Homo sapiens, UniProt O00329); details: kinase PIK3CD (Entrez PIK3CD)
T18 construct: purchased Eurofin/DiscoverX
Procedure, shortened: as §1

[19] = biological target: T19, 384 kinases from the human genome (Homo sapiens, UniProt P04626); details: kinase ERBB2 (Entrez ERBB2)
T19 construct: purchased Eurofin/DiscoverX
Procedure, shortened: as §1

[20] = biological target: T20, 384 kinases from the human genome (Homo sapiens, UniProt P36896); details: kinase ACVR1B (Entrez ACVR1B)
T20 construct: purchased Eurofin/DiscoverX
Procedure, shortened: as §1

[21] = biological target: T21, 384 kinases from the human genome (Homo sapiens, UniProt P00533)
T21 construct: purchased Eurofin/DiscoverX
Procedure, shortened: as §1

[22] = biological target: T22, 384 kinases from the human genome (Homo sapiens, UniProt Q13557); details: kinase CAMK2D (Entrez CAMK2D)
T22 construct: purchased Eurofin/DiscoverX
Procedure, shortened: as §1

[23] = biological target: T23, 384 kinases from the human genome (Homo sapiens, UniProt O94804); details: kinase LOK (Entrez STK10)
T23 construct: purchased Eurofin/DiscoverX
Procedure, shortened: as §1

[24] = biological target: T24, 384 kinases from the human genome (Homo sapiens, UniProt Q8N568); details: kinase DCAMKL2 (Entrez DCLK2)
T24 construct: purchased Eurofin/DiscoverX
Procedure, shortened: as §1

[25] = biological target: T25, 384 kinases from the human genome (Homo sapiens, UniProt Q8WXR4); details: kinase MYO3B (Entrez MYO3B)
T25 construct: purchased Eurofin/DiscoverX
Procedure, shortened: as §1

[26] = biological target: T26, 384 kinases from the human genome (Homo sapiens, UniProt Q86UE8); details: kinase TLK2 (Entrez TLK2)
T26 construct: purchased Eurofin/DiscoverX
Procedure, shortened: as §1

T2 sequence (P12931 whole entry): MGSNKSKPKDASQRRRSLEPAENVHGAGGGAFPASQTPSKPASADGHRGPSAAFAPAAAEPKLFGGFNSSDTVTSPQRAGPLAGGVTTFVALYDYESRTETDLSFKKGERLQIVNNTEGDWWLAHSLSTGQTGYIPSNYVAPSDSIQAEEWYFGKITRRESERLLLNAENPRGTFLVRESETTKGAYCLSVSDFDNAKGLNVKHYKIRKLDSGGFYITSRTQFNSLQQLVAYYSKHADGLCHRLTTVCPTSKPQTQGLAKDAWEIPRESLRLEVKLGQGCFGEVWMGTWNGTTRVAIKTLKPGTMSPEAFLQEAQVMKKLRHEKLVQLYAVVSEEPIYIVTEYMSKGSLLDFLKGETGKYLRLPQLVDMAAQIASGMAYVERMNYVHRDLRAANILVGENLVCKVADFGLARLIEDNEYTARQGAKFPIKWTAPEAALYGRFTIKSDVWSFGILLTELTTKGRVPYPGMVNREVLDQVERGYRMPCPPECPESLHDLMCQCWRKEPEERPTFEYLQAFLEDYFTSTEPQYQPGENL
T21 sequence (P00533 25-1210): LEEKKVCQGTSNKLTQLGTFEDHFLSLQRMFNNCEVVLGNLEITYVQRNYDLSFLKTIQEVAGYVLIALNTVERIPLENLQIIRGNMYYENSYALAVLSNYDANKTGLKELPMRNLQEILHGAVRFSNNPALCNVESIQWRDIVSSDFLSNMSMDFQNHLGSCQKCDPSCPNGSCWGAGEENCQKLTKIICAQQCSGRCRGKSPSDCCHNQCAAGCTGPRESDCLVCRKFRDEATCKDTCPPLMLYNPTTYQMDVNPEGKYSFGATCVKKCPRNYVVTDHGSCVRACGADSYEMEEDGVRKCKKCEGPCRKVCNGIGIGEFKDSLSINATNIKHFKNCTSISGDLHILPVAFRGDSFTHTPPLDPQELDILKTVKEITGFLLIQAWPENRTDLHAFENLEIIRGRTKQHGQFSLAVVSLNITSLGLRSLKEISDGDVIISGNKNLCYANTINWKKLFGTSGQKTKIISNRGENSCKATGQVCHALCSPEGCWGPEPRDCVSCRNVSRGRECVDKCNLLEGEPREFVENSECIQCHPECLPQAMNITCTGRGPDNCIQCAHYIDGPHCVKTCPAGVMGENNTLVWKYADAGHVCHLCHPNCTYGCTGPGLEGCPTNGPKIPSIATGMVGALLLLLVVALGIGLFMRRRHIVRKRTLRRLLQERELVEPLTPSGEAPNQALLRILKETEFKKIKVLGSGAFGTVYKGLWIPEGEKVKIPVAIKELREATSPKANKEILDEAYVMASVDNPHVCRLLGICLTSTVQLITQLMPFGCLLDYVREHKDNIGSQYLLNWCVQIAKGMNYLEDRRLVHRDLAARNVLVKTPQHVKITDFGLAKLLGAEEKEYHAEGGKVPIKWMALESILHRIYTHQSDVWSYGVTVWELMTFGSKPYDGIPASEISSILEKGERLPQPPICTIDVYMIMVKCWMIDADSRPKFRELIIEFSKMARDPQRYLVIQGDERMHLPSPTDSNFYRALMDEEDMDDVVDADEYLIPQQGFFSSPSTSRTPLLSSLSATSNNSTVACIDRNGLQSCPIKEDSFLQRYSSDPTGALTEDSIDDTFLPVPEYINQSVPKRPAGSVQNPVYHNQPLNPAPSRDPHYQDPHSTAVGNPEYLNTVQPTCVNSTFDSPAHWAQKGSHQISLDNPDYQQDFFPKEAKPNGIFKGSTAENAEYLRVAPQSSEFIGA
T1 sequence (Q9HAZ1 whole entry): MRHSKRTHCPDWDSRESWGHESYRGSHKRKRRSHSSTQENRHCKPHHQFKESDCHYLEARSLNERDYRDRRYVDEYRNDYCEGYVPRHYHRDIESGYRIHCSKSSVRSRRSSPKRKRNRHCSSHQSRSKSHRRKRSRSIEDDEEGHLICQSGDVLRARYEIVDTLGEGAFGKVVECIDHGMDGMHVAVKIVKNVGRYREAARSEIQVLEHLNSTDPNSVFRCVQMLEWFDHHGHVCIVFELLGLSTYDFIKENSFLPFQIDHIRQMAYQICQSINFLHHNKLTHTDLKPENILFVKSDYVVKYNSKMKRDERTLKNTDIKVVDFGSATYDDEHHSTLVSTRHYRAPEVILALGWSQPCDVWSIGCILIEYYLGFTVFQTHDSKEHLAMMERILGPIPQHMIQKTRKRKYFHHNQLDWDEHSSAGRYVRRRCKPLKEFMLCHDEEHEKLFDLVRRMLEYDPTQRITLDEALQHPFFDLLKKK
T15 sequence (P07948 whole entry): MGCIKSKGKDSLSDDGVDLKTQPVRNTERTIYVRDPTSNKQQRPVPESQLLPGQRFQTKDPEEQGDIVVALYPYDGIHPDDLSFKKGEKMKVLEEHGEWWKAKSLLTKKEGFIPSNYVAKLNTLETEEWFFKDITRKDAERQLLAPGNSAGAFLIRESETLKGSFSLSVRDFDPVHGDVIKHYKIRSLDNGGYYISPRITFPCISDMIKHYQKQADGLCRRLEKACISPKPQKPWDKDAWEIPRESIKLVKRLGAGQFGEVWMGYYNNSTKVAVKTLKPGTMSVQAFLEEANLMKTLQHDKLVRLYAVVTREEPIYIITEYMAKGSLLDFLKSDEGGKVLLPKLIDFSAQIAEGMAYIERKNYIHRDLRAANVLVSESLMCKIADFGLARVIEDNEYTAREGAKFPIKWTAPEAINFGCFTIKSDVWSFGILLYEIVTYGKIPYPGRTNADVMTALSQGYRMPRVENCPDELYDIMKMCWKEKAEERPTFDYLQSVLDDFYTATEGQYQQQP
T4 sequence (P43403 whole entry): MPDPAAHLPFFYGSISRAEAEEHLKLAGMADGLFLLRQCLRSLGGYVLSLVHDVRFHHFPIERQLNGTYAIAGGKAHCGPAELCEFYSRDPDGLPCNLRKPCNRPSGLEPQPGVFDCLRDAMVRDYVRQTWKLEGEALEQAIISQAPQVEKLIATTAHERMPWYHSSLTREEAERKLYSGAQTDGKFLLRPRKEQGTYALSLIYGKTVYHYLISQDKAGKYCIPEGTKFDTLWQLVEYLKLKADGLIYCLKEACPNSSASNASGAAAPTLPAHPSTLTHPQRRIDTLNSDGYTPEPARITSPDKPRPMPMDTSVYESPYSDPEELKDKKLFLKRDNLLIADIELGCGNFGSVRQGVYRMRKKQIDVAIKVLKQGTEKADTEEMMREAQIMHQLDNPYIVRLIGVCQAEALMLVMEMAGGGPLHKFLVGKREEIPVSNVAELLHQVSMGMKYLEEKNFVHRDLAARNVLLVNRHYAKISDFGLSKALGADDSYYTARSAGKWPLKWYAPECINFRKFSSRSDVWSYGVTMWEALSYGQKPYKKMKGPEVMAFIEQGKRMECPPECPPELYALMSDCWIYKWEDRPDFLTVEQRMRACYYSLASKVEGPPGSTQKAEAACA
T6 sequence (P06213 28-1382): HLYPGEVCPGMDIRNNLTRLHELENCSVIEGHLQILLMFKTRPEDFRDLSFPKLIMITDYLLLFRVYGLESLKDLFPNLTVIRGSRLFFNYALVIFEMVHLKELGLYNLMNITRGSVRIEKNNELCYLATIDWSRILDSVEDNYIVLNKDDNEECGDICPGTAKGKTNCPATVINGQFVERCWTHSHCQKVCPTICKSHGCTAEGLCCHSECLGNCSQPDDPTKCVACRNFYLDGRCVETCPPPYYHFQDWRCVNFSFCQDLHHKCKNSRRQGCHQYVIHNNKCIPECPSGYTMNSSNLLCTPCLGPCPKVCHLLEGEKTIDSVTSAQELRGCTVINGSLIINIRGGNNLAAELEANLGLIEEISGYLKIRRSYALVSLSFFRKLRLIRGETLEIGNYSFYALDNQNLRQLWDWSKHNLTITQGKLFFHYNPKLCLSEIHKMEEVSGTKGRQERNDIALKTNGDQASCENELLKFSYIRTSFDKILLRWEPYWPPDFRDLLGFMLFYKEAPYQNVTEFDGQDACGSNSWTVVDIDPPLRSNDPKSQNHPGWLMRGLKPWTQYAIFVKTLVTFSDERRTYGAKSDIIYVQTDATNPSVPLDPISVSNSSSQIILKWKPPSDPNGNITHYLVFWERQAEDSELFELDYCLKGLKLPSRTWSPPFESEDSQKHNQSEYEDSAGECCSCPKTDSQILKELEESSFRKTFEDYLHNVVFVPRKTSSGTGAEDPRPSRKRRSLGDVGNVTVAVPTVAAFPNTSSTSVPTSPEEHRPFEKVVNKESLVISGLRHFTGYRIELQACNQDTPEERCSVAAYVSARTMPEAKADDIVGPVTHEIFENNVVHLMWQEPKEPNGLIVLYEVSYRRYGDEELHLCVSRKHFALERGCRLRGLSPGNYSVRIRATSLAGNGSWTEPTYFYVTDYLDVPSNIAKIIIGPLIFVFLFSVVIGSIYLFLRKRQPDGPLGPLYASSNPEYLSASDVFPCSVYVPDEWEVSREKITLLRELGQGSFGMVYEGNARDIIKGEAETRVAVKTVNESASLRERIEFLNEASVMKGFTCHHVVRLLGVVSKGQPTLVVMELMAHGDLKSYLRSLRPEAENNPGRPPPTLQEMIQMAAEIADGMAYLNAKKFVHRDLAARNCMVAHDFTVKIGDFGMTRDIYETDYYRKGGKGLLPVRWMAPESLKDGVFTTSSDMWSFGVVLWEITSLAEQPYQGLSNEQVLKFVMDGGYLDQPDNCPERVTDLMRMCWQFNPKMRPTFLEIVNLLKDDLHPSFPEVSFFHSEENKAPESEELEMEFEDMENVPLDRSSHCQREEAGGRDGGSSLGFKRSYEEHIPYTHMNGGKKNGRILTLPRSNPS
T13 sequence (Q9HC98 whole entry): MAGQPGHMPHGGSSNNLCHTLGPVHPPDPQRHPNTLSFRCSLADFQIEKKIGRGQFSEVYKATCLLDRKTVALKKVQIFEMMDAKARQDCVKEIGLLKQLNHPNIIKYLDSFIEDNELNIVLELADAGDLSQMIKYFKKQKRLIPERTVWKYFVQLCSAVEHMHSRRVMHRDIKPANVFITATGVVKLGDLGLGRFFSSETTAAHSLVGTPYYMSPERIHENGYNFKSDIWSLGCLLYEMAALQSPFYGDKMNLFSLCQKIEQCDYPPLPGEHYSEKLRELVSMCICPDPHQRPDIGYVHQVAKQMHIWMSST

Question: Which results are given for `CC(C)C(=O)N1CCN(c2ccc(NC(=O)c3cc4ccccc4o3)cc2Cl)CC1` [Compound 21]?
Answer: Percent Control [1]: 79%; binding to Src ([2]; 10 µM of 21): failed to bind; Percent Control ([2]; kinase SRC (Entrez SRC)): 100%; Percent Control [3]: 100%; Percent Control [4]: 98%; Percent Control [5]: 99%; Percent Control [6]: 82%; Percent Control [7]: 92%; Percent Control [8]: 100%; Percent Control [9]: 70%; Percent Control [10]: 64%; Percent Control [11]: 77%; Percent Control [12]: 97%; Percent Control [13]: 94%; Percent Control [14]: 99%; Percent Control [15]: 100%; Percent Control [16]: 93%; Percent Control [17]: 91%; Percent Control [18]: 100%; Percent Control [19]: 75%; Percent Control [20]: 85%; binding to EGFR ([21]; 10 µM of 21): failed to bind; Percent Control ([21]; kinase EGFR (Entrez EGFR)): 89%; Percent Control [22]: 92%; Percent Control [23]: 100%; Percent Control [24]: 99%; Percent Control [25]: 58%; Percent Control [26]: 100%
